Among the data in PubChem BioAssay (NCI) are TGI and GI50 values, retold here.

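Briefly, cells in 96-well plates were exposed to five compound concentrations for 48 h, and endpoints were estimated by linear interpolation. At the GI50, growth is halved. Definition used: TGI = concentration required for complete inhibition of growth.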 Where only a bound is given, the exact number is not on record here.

Test in all cases: growth of human tumour cells (NCI), 48 h
Assay [1] relates to BT-549 breast.
Assay [2] has as its system DU-145 prostate.
Assay [3] deals with HCC-2998 colon.
Assay [4] concerns HS 578T breast.
For assay [5], the system named is NCI/ADR-RES ovarian.
In assay [6] the test system is T-47D breast.
Assay [7] concerns CCRF-CEM leukemia.
For assay [8], the system named is DLD-1 colon.
The test system of assay [9] is DMS 114 small cell lung.
The subject of assay [10] is DMS 273 small cell lung.
The test system of assay [11] is HOP-18 NSCLC.
Assay [12] relates to KM20L2 colon.
Assay [13] relates to LXFL 529 NSCLC.
Assay [14] concerns M19-MEL melanoma.
Assay [15] relates to SNB-78 CNS.

Turning to `COc1cc(O)c2c(=O)c(OC)c(-c3ccc(OC)c(OC)c3)oc2c1.[Zn+2]`, the TGI in assay [1] was over 100 µM; in assay [2] it was over 100 µM; in assay [3], over 100 µM; in assay [4] it was 9.49 µM; in assay [5], over 100 µM; in [6] it was over 100 µM. In addition, the GI50 in assay [2] is 24.6 µM; in [3], 43.1 µM; in assay [5], 14.9 µM; in assay [6], 5.7 µM.

As for `NC(=S)N/N=C1\CC(c2ccccc2)Nc2ccccc21` (stereo not drawn), the TGI in assay [7] is over 100 µM; in [8], over 100 µM; in [9], 63.4 µM; in assay [10] it was over 100 µM; in assay [11] it was over 100 µM; in assay [12], 47.2 µM. Also, the TGI in [13], in [14] and in assay [15] was over 100 µM throughout.

`CC(=O)Oc1cc(/C=C/c2ccc(O)cc2)cc(OC(C)=O)c1`: the TGI in [2] is over 100 µM; in assay [4], over 100 µM; in [5], 51.9 µM; in assay [6], over 100 µM.

For `COc1ccc(OC)c([N+](=O)[O-])c1-c1nc2sc(C)c(C)n2c1/C=N/N=C(N)N`, the TGI in assay [1] is 57.7 µM; in assay [7] it was over 100 µM; in assay [2] it was over 100 µM; in assay [3] it was over 100 µM; in assay [4], over 100 µM; in [5], over 100 µM. In addition, in assay [6], the TGI was 61.2 µM.

Regarding `CC(=O)C(N=NC1CCC(S(=O)(=O)NB2N=CS2)CC1)C(=O)Nc1ccccc1C` (stereo not drawn), the TGI in assay [7] was over 100 µM; in assay [8], 35.4 µM; in assay [9], 26.3 µM; in assay [10], 48 µM; in [3], 31.4 µM; in assay [11], 80 µM. Further, the TGI turned out to be 29.6 µM in assay [12], 27.6 µM in assay [13], 34.1 µM in [14] and 67.1 µM in [15].

Regarding `C[N+]1(C)C/C(=C\c2ccc(O)cc2)C(=O)/C(=C/c2ccc(O)cc2)C1`, the TGI in [7], in assay [8], in assay [9], in assay [10], in assay [3] and in [11] was over 100 µM in each case. Further, the TGI in [12], in assay [13], in assay [14] and in [15] was over 100 µM in each case.

`N=C(N)SCCN1CCCCC1`: the TGI is 64.9 µM in assay [1]; 64.7 µM in [2]; 58.2 µM in assay [4]; over 100 µM in [5]; 85.6 µM in [6].

For `Nc1ccc(S(=O)(=O)NCCS(=O)(=O)O)cc1`, the TGI in assay [1], in assay [7], in assay [2], in [4] and in [5] was over 100 µM throughout.

On to `C[N+]1(c2ccccc2)C=C(c2ccccc2)SC1=S` (stereo not drawn), for which the TGI in [1] was over 100 µM; in assay [2], over 100 µM; in assay [3], over 100 µM; in assay [4], over 100 µM; in assay [5], over 100 µM; in [6] it was 8.63 µM.

In the case of `Cc1cccc(/C=C2/C(=O)Nc3ccccc32)n1`, the TGI in assay [1] is 68.6 µM; in assay [7], over 85.9 µM; in assay [2] it was 32.9 µM; in assay [3] it was 22.4 µM; in assay [4], over 80.1 µM; in assay [5], 53.2 µM. This compound also came in with a TGI in assay [6] of 34.2 µM.

As to `O=C1O/C(=C\C=C\CO)C=C1/C=C/CO`, the TGI turned out to be 50.9 µM in assay [1]; 60.3 µM in assay [7]; 50.7 µM in assay [2]; 89.1 µM in [5]; 51.7 µM in assay [6].

As to `Cc1ncc(COP(=O)(O)O)c(C)c1O`, the TGI in assay [1], in [4], in assay [5] and in assay [6] was over 100 µM in each case.

In the case of `CCOc1ccc(N=Nc2ccc(-c3ccc(N=Nc4c(O)ccc5cc(S(=O)(=O)O)cc(S(=O)(=O)O)c45)cc3)cc2)cc1`, the TGI in assay [1], in assay [7], in [3], in [4] and in assay [5] was over 100 µM in each case.

Consider `CCCCCCCCc1ccc(CCC(N)(CO)CO)cc1`, for which the results for the GI50 in assay [2], in assay [3] and in assay [6] were 1.81 µM, 1.57 µM and 1.78 µM, respectively. Also, the TGI in assay [2] is 3.24 µM; in [3], 2.96 µM; in assay [6] it was 3.44 µM.

With `C=C(C[C@@H](O)[C@H](C)NC(=O)OCc1ccccc1)C(=O)OC(C)(C)C`, the TGI is over 100 µM in [1]; 61.7 µM in assay [7]; over 100 µM in assay [2]; over 100 µM in assay [3]; over 100 µM in assay [4]; over 100 µM in assay [5]. In [6], this compound returned a TGI of 67.3 µM.

With `O=S(=O)([O-])[O-].[Fe+2].[OH2+]c1c(Cl)cc(Cl)cc1/C=N/Nc1ccccn1`, the TGI in assay [8] is 1.8 µM; in [9], 0.595 µM; in [3], 5.13 µM; in assay [11], 1.93 µM; in assay [12] it was 3.66 µM; in assay [13], 1.39 µM. This compound also gave a TGI in assay [14] of 4.86 µM. Also, the GI50 in assay [11] was 550 nM.
